Measurements from US11339165B2, “Pyrazolopyrimidines having activity against the respiratory syncytial virus (RSV)” (priority 2017, dated 2022).

How the values were obtained:
rgRSV224 virus = assay: Antiviral activity: rgRSV224 (GFP) replication in HeLa cells; assay type: cell-based, respiratory syncytial virus (RSV); details: human respiratory syncytial virus, HeLa, 72 h, read-out: RSV HELA EC50 (μM), rgRSV224 virus (MOI=1), HeLa cells, GFP expression three days post-virus exposure
in vitro = details: human, TOX HELA CC50 (μM)

Row | Compound | EC50 (rgRSV224 virus) | melting point | CC50 at 3 days (in vitro)
1 | C[C@@H]1c2ccccc2CCN1C(=O)c1cc(C2CC2)n2nc(-c3ccc(N4CC[C@H](C(N)=O)[C@@H]4C)cc3F)cc2n1 (single isomer, unassigned) [Compound 83, (2*S,3*S)-1-(4-{7-Cyclopropyl-5-[(1R)-1-methyl-1,2,3,4-tetrahydroisoquinoline-2-carbonyl]pyrazolo[1,5-a]pyrimidin-2-yl}-3-fluorophenyl)-2-methylpyrrolidine-3-carboxamide] | 0.044 µM | 235.56 °C | 42.4 µM
2 | C[C@@H]1c2ccccc2CCN1C(=O)c1cc(C2CC2)n2nc(-c3ccc(N4CCC5(COC5)C4)cc3F)cc2n1 [Compound 5, (1R)-2-[7-Cyclopropyl-2-(2-fluoro-4-{2-oxa-6-azaspiro[3.4]octan-6-yl}phenyl)pyrazolo[1,5-a]pyrimidine-5-carbonyl]-1-methyl-1,2,3,4-tetrahydroisoquinoline] | 0.118 µM | 220.25 °C | > 25 µM
3 | CC(=O)N[C@@H]1CCN(c2ccc(-c3cc4nc(C(=O)N5CCc6ccccc6[C@H]5C)cc(C5CC5)n4n3)c(F)c2)C1 [Compound 7, N-[(3R)-1-(4-{7-Cyclopropyl-5-[(1R)-1-methyl-1,2,3,4-tetrahydroisoquinoline-2-carbonyl]pyrazolo[1,5-a]pyrimidin-2-yl}-3-fluorophenyl)pyrrolidin-3-yl]acetamide] | 0.037 µM | 189 °C | 71.5 µM
4 | C[C@@H]1c2ccccc2CCN1C(=O)c1cc(C2CC2)n2nc(-c3ccc(N4CC[C@@H](NS(C)(=O)=O)C4)cc3F)cc2n1 [Compound 11, N-[(3R)-1-(4-{7-Cyclopropyl-5-[(1R)-1-methyl-1,2,3,4-tetrahydroisoquinoline-2-carbonyl]pyrazolo[1,5-a]pyrimidin-2-yl}-3-fluorophenyl)pyrrolidin-3-yl]methane-sulfonamide] | 0.044 µM | 159.35 °C | > 100 µM
5 | C[C@@H]1c2ccccc2CCN1C(=O)c1cc(C2CC2)n2nc(-c3ccc(N4CC[C@@H](S(C)(=O)=O)C4)cc3F)cc2n1 [Compound 17, (1R)-2-(7-Cyclopropyl-2-{2-fluoro-4-[(3R)-3-methanesulfonylpyrrolidin-1-yl]phenyl}-pyrazolo[1,5-a]pyrimidine-5-carbonyl)-1-methyl-1,2,3,4-tetrahydroisoquinoline] | 0.05 µM | 258.48 °C | > 100 µM
6 | C[C@@H]1c2ccccc2CCN1C(=O)c1cc(C2CC2)n2nc(-c3ccc(N4CCC(S(N)(=O)=O)C4)cc3F)cc2n1 (stereo partly drawn) [Compound 19, 1-(4-{7-Cyclopropyl-5-[(1R)-1-methyl-1,2,3,4-tetrahydroisoquinoline-2-carbonyl]-pyrazolo[1,5-a]pyrimidin-2-yl}-3-fluorophenyl)pyrrolidine-3-sulfonamide] | 0.041 µM | 308.63 °C | 72.3 µM
7 | C[C@@H]1c2ccccc2CCN1C(=O)c1cc(C2CC2)n2nc(-c3ccc(N4CC[C@H](C(N)=O)C4)cc3F)cc2n1 [Compound 36, (3S)-1-(4-{7-Cyclopropyl-5-[(1R)-1-methyl-1,2,3,4-tetrahydroisoquinoline-2-carbonyl]pyrazolo[1,5-a]pyrimidin-2-yl}-3-fluorophenyl)pyrrolidine-3-carboxamide] | 0.012 µM | 237.7 °C | 29.3 µM
8 | C[C@@H]1c2ccccc2CCN1C(=O)c1cc(C2CC2)n2nc(-c3ccc(N4CC[C@H](C(N)=O)C4)nc3F)cc2n1 [Compound 49, (3S)-1-(5-{7-Cyclopropyl-5-[(1R)-1-methyl-1,2,3,4-tetrahydroisoquinoline-2-carbonyl]-pyrazolo[1,5-a]pyrimidin-2-yl}-6-fluoropyridin-2-yl)pyrrolidine-3-carboxamide] | 0.024 µM | 239.19 °C | 32.3 µM
